These results are taken from US8394355B2, “Use of UTP for the diagnosis of stenoses and other conditions of restricted blood flow” (P2 science Aps, priority 2009, dated 2013).

Structures are written as SMILES.

One assay concerns leg blood flow. Particulars: cited from earlier work; for relative vasoactive potency (rank order): only for blood flows around 3.5 Lmin^−1.
Assay [1] concerns pulmonary and systemic circulation of healthy female pigs. The assay is described as follows: Systemic (central intravenous) nucleotide infusion in pigs, hemodynamic response. In kind it is in vivo. Particulars: for increase in CO (cardiac output): FIG. 7b; for increase in HR from baseline: FIG. 7c; for decrease in SV (stroke volume): FIG. 7d; for MAP lowered by, from baseline: p<0.05, FIG. 7a; for infusion rate at target MAP: target ~50% reduction in baseline MAP, right atrium infusion. As for the experimental part:
In the present study, the hemodynamic response in the pulmonary and systemic circulation was tested, as well as the effect of central intravenous infusions of ATP, ADP, ADO, and UTP on the heart.
Infusion rates were aimed at exerting a pronounced systemic response in the lowering of arterial blood pressure, but avoiding a total circulatory collapse.
Methods: 10 healthy female pigs (Department of Experimental Medicine and Surgery, University of Copenhagen, Denmark) bred as a combination of the Danish Landrace (⅓) and Yorkshire (⅔), with a medium weight of 41±2 kg were investigated.
Mean arterial blood pressure (MAP) was obtained from the catheter in arcus aorta with the transducer (Pressure Monitoring Kit, Baxter, Deerfield, Ill., USA) positioned at the level of the heart. The left femoral artery was subsequently exposed and an ultrasound doppler probe attached for peripheral femoral artery flow measurements (CM-4000, Cardiomed, Norway). MAP, HR and peripheral flow were monitored and data continuously collected using a PowerLab system (Adinstruments, Australia). Cardiac Output (CO) was determined in triplicates by thermodilution, following an injection of 10 ml of cooled saline solution. Blood samples were withdrawn from catheters in aorta and the right atrium at baseline and at steady state when MAP had decreased maximally or by ˜50%. Calculated variables were: stroke volume of the heart (SV=CO/HR), pulmonary vascular resistance (PVR=(MPAP−PCWP)/CO), systemic vascular resistance (SVR=(MAP−MRAP)/CO), leg vascular conductance (LVC=LBF/(MAP−MRAP)), and arterial (aorta) and mixed venous (pulmonary artery) oxygen content (Hb*1.34*O2 saturation). In the calculation of LVC, MRAP was used as an estimate of mean femoral venous pressure (MFVP), as MRAP was found in a series of measurements to equal MFVP, as estimated in 10 supine pigs. As a potential estimate for myocardial oxygen demand the rate pressure product (RPP=MAP*HR) was also calculated.
Drug infusions: Each animal was administered the nucleotides ATP, UTP, ADP (Sigma, St. Louis, Mo., USA) and ADO (Item Development AB, Stocksund, Sweden), through the internal jugular vein in the right atrium, in random order following blinded allocation. The nucleotides and ADO were prepared by dissolving in saline so as to achieve the target concentration of ATP (40±0.5 μmol/min), ADP (43±8 μmol/min), UTP (up to 1,600 μmol/min), and ADO (73±7 μmol/min). The nucleotides were infused in increasing dosages at 2 min intervals aiming at reducing MAP by maximally ˜50%. Thereafter, that specific infusion rate was maintained for ˜3-5 min. After each intervention the animal rested for ˜30 min, allowing resting cardiovascular variables to be reestablished. Thereafter, a new cycle of nucleotide infusion was administered. In the present study we aimed to allow the drugs to reduce MAP by ˜50%, but without inducing a hemodynamic and circulatory collapse, to simulate a pronounced state of systemic vasodilation, as may be observed for instance in a shock condition.

Assay [2] deals with infarct area during acute myocardial infarction. The assay is described as follows: ADP or UTP infusion during myocardial infarction in pigs (unpublished). Format: in vivo. Particulars: infused during acute myocardial infarction, unpublished results. The text has this: This is clearly in contrast to previous findings, but is more clinically relevant as most cardiac patients are older. […] This conclusion is also supported by another study by the present inventor in pigs where ADP or UTP was infused during myocardial infarction. […] Therefore, the previous assumptions in patent application WO 2007/065437 relating to the regulation of purinergic receptor activity to modulate vascular tone, particularly for treating hemodynamic conditions by overriding vasoconstriction activity, which could potentially have clinical applications for treatment with UTP agonists or antagonists, is incorrect.

As to `Nc1ncnc2c1ncn2[C@@H]1O[C@H](COP(=O)(O)O)[C@@H](O)[C@H]1O` [AMP], the “relative vasoactive potency (rank order)” value with leg blood flow is 1.7.

As to `Nc1ncnc2c1ncn2[C@@H]1O[C@H](COP(=O)(O)OP(=O)(O)OP(=O)(O)O)[C@@H](O)[C@H]1O` [ATP], in assay [1], the “increase in CO (cardiac output)” value came out at 35.1±6.9%; the “increase in HR from baseline” value is given as 23.0±5.7%; the “decrease in SV (stroke volume)” value is on record as “did not significantly change SV”; the “MAP lowered by, from baseline” value was 47.4±1.7%. Besides, the “infusion rate at target MAP” value in assay [1] came to 40.2 ± 0.5 µmol/min. Further, in assay [1] (p<0.05), the “decrease in LBF (leg blood flow) from baseline” value was 22.7±4.2%, the “decrease in SVR (systemic vascular resistance) from baseline” value came to 61.6±2.1% and the “increase in LVC (leg vascular conductance) from baseline” value was 44.7±8.7%. Also, the “decrease in PVR (pulmonary vascular resistance) from baseline” value in assay [1] (pig, in vivo) was found to be 37.8±4.9%. For the same molecule, the “blood flow increase, % of maximum in the leg during hard exercise” value in the assay on leg blood flow (local infusion) is given as 85%. Moreover, the “relative vasoactive potency (rank order)” value in the assay on leg blood flow was 100.

With `Nc1ncnc2c1ncn2[C@@H]1O[C@H](COP(=O)(O)OP(=O)(O)O)[C@@H](O)[C@H]1O` [ADP], in assay [1], the “increase in CO (cardiac output)” value is reported as “not alter CO”; the “increase in HR from baseline” value is 26.6±4.6%; the “decrease in SV (stroke volume)” value was found to be 21.1±5.6%; the “MAP lowered by, from baseline” value came out at 48.4±1.2%. Moreover, the “infusion rate at target MAP” value in assay [1] was found to be 43.2 ± 7.7 µmol/min. In addition, the “PVR reached during titration” value in assay [1] (dose dependent increase) is recorded as 7.3±1.2 Wood Unit. For the same molecule, in assay [1] (p<0.05), the “decrease in LBF (leg blood flow) from baseline” value stood at 34.9±10.2%, the “decrease in SVR (systemic vascular resistance) from baseline” value stood at 49.5±2.0% and the “increase in PVR” value is on record as 156.7±38.3%. In addition, in assay [2], the “effect on infarct area” value was “diminished it”. For the same molecule, the “relative vasoactive potency (rank order)” value in the assay with leg blood flow is on record as 2.7.
